# Experimental data: patent US20230235374A1, “High Throughput Assays for Detecting Translation Readthrough Inducers” (The Trustees of the University of Pennsylvania, priority 2021, published 2023)
# Experiments:
# [1] = system: rRNA fragments I-IV of 80S-IRES; assay: RNaseH fragment assay, 80S-IRES; format: binding, shrimp (Artemia salina); conditions: PAL, 300 μM AzAt, alone or plus competing ligand named as label
# Procedure: RNaseH Fragment Assay. Total RNA was prepared from the ^3H-AzAt photoaffinity labeled ribosome by phenol-chloroform extraction. RNA: DNA duplexes were formed by incubating total RNA (0.2 μM) with an oligonucleotide pair (1 μM of each, sequences shown Table 1), flanking a specific RNA region, in 22.8 μL of water at 95° C. for 2 min, followed by annealing at 50° C. for 30 s and quenching on ice. Six units (1.2 μL) of RNase H (NEB) and 6 μl of 5×RNase H Reaction Buffer were next added to the RNA: DNA duplex and incubated at 37° C. for 1 hour, followed by phenol-chloroform extraction of RNA. The digested RNA was separated on 12% TBE-Urea PAGE gel, and the target band along with the adjacent upper and bottom gels were sliced by a 2 mm gel cutter. The gel slices were crushed and the ^3H labeled rRNA fragment was extracted in water by vigorously shaking at 70° C. for 30 min, or by overnight extraction in elution buffer (0.3M sodium acetate, 0.25% SDS, 1 mM EDTA). The slurry was removed by centrifugation and the eluted ^3H labeled rRNA in the supernatant was quantified. The stoichiometry of AzAt photoincorporation was calculated based on a gel recovery yield of 20±2%, determined using an authentic sample of [^3H]-Gln-tRNA^Gln.
# Testing the functional pertinence of AzAt photolabeling of 18S A1195, 28S-A3093, 28S-A2672, and 28S-2669. An RNAse H fragment assay was employed to determine whether the potential functionally significant sites identified by LASER-seq correspond to ataluren binding sites relevant for termination activity. In this assay, oligonucleotide hybridization, RNase H digestion and polyacrylamide gel electrophoresis (PAGE) were used to determine the stoichiometry of [^3H]-AzAt photoincorporation into the three rRNA fragments that together include the four nucleotides of interest: Fragment I, 18S-A1195; Fragment II, 26S-A3093; Fragment III, 26S-A2669 and 26S-A2672 (Table 5). The separate addition of four potential competitors of AzAt binding (eRF1 alone, the stably bound eRF1.eRF3.GDPNP complex, ataluren, and the ataluren-like TRID GJ072) was used to test how these affected such photoincorporation. These experiments, the results of which are summarized in Table 5, were performed at two different AzAt concentrations. eRF1 and eRF1.eRF3.GDPNP effects were measured using 300 μM AzAt, paralleling the LASER-Seq PAL experiments.
# [2] = system: RNA of Stop-POST5 and 80S.IRES complexes; assay: LASER-seq mutational profiling of AzAt photoincorporation sites; format: binding, shrimp (Artemia salina); conditions: 300 μM AzAt
# Procedure: RNA-Seq procedures employed closely follow those published (Zinshteyn et al., Nucleic Acids Res, 47, 43-55 (2019); McClary et al., Cell Chem Biol, 24, 605-613 e605 (2017)) except as noted.
# Library preparation. RNA-seq libraries were prepared for PAL, PRE, UV, and NUL samples, as defined in Results, of Stop-POST5 and 80S.IRES complexes, using published procedures (Zinshteyn et al., Nucleic Acids Res, 47, 43-55 (2019); McClary et al., Cell Chem Biol, 24, 605-613 e605 (2017)) with the slight modifications that a 12% 0.13 M Tris/45 mM Borate/2.5 mM EDTA (pH 7.6))—Urea PAGE gel replaced a 10% PAGE gel and the selected RNA fragment size was 40-70 bp rather than 60-70 bp. In brief, RNA was extracted and randomly fragmentated by ZnCl2 (Sigma). After separation on the TBE-Urea PAGE gel, RNA fragments, visualized by ethidium bromide staining (used for all RNA gels) were sliced and extracted from the gel by crushing the gel and vigorously shaking (1400 rpm) at 70° C. in 400 μL of water for 15 min. The 3′ ends were dephosphorylated by T4 Polynucleotide Kinase (New England Biolab). The miRNA cloning linker 2 (5′App/[…]/3′ddC (SEQ ID NO: 11), Integrated DNA Technologies) was used as the universal 3′ linker and pre-adenylated using the 5′ DNA Adenylation Kit (New England Biolab) with the provided protocol. Reverse transcription, self-circularization, and PCR amplification were performed essentially the same as previously described (McClary et al., Cell Chem Biol, 24, 605-613 e605 (2017)). Library sequencing was performed on Illumina NextSeq with single-end mode for up to 75 bp read length.
# Data processing. Sequencing reads were processed by Cutadapt 2.10 (cutadapt.readthedocs.io/en/stable/) to remove 3′ end linkers and then inputted into Shapemapper2 (Busan et al., RNA, 24(2):143-148 (2018)) to count the mutations and effective sequencing reads, using the STAR Aligner mode (Dobin et al., STAR: ultrafast universal RNA-seq aligner. Bioinformatics. 29:15-21 (2013)). The mutation rate of each nucleotide was calculated by dividing the number of the reads containing the mutations by the total number of reads, outputted as N.
# For the PAL sample, the mutation rate fold change was calculated by dividing the mutation rate of the PAL sample by the mutation rate of the PRE sample. The average mutation count was calculated by averaging the number of mutations of the PAL and PRE samples. MA plots (FIG. 3A, FIG. 3B, FIG. 3C and FIG. 3D) were charted by plotting the mutation rate fold change of each nucleotide as a function of the average mutation count of each nucleotide. To determine possibly significant sites of AzAt labeling, the dataset was first screened for points that meet the criteria of a mutation rate fold change ≥1.5 and an average mutation count ≥100. Points meeting these criteria were further screened with Z-factor >0 and p-value <0.05 to determine statistical significance. The Z-factor (z) was calculated using the following equation
# For each complex LASER-Seq was carried out on four types of samples, denoted PAL, PRE, UV, and NUL. PAL samples were prepared by photoaffinity labeling of complexes with 300 μM AzAt, a concentration close to saturating for photoincorporation (FIG. 2C). PRE samples were prepared using separately prephotolyzed AzAt that was re-irradiated in the presence of complexes. UV and NUL samples were prepared in the absence of AzAt by either subjecting complexes to uv irradiation (UV) or just analyzing complexes directly (NUL).
# The sites of modification arising exclusively via nitrene formation on irradiation of AzAt was first identified by the mutation rate fold change of PAL vs. PRE samples, a procedure which corrects for mutation rates arising from noncovalent binding, or covalent photoincorporation of pre-photolyzed AzAt, or uv-induced mutations not related to AzAt (Table 4). The results obtained for the ≥6,006 nucleotides present in these two complexes are presented in FIG. 3A, FIG. 3B, FIG. 3C and FIG. 3D. […]
smiles,measurement,setting,value
[N-]=[N+]=Nc1ccc(-c2nc(-c3cccc(C(=O)O)c3)no2)cc1 [AzAt],Photoincorporation yields into 18S A1195/ I: 18S 1151-1206,[1]; 80S-IRES,1.03 ± 0.33 mole %
same,Photoincorporation yields into 26S-A2669:A2672/ III: 26S 2638-2702,[1]; 80S-IRES,1.01 ± 0.12 mole %
same,Photoincorporation yields into 26S-A3093/ II: 26S 3069-3113,[1]; 80S-IRES,0.50 ± 0.09 mole %
same,Photoincorporation yields into RNAse H Fragment IV: 26S 1413-1476,[1]; 80S.IRES,0.29 ± 0.11%
same,"mutation rate change, 26S-A1437",[2],1.4 fold
same,"mutation rate change, 26S-A1438",[2],1.3 fold
same,"mutation rate change, IRES-A142",[2],1.4 fold
same,"mutation rate change, IRES-G186",[2],2.0 fold
same,"mutation rate change, IRES-U177",[2],2.4 fold
same,"mutation rate fold-increase PAL vs. PRE, 18S-A1195",[2]; in both complexes,~9 fold
